Data taken from ChEMBL document CHEMBL5338785, “Development of Aromatic-Linked Diamino Acid Antimicrobial Peptide Mimics with Low Hemolytic Toxicity and Excellent Activity against Methicillin-Resistant Staphylococcus aureus (MRSA)” (J Med Chem, 2023).
Converted amounts (≈) assume the structure as drawn.

How the values were obtained:
Enterococcus faecalis = test: Antibacterial activity against Enterococcus faecalis assessed as bacterial growth inhibition incubated for 18 hrs by CLSI protocol based Mueller-Hinton broth assay; type: functional; details: Enterococcus faecalis, 18 h, read-out: MIC
[1] = Hemolytic activity in sheep RBC assessed as hemolysis incubated for 1 hr by microplate reader method; type: toxicity, cell-based, Ovis aries, Erythrocyte; details: sheep red blood cells
Escherichia coli = test: Antibacterial activity against Escherichia coli assessed as bacterial growth inhibition incubated for 18 hrs by CLSI protocol based Mueller-Hinton broth assay; type: functional; details: Escherichia coli, read-out: MIC
[2] = test system: Stenotrophomonas maltophilia; test: Antibacterial activity against Stenotrophomonas maltophilia assessed as bacterial growth inhibition incubated for 18 hrs by CLSI protocol based Mueller-Hinton broth assay; type: functional; details: Stenotrophomonas maltophilia, read-out: MIC
[3] = Selectivity index, ratio of HC50 for hemolytic activity in sheep RBC to MIC for antibacterial activity against methicillin-resistant Staphylococcus aureus assessed as bacterial growth inhibition; type: toxicity; details: sheep red blood cells
Staphylococcus aureus [4] = test: Antibacterial activity against methicillin-resistant Staphylococcus aureus assessed as bacterial growth inhibition incubated for 18 hrs by CLSI protocol based Mueller-Hinton broth assay; type: functional; details: Staphylococcus aureus, read-out: MIC
Staphylococcus aureus [5] = test: Antibacterial activity against methicillin-resistant Staphylococcus aureus clinical isolates assessed as bacterial growth inhibition incubated for 18 hrs by CLSI protocol based Mueller-Hinton broth assay; type: functional

| Compound | MIC (Enterococcus faecalis) [µg/mL] | HC50 at 1 h [1] [µg/mL] | MIC (Escherichia coli; 18 h) [µg/mL] | MIC [2] [µg/mL] | selectivity ratio [3] | MIC (Staphylococcus aureus [4]) [µg/mL] | MIC (Staphylococcus aureus [5]) [µg/mL] | MIC (Escherichia coli) [µg/mL] |
| --- | --- | --- | --- | --- | --- | --- | --- | --- |
| CCCCCCCN(CCOc1ccc(OCCN(CCCCCCC)C(=O)[C@@H](N)[C@@H](C)CC)cc1)C(=O)[C@@H](N)[C@@H](C)CC.Cl.Cl | 1 | 47 | 2 | 2 | 94 | 0.5 | – | – |
| CCCCCCN(CCCOc1cccc(-c2cccc(OCCCN(CCCCCC)C(=O)[C@@H](N)CCCCN)c2)c1)C(=O)[C@@H](N)CCCCN.Cl.Cl.Cl.Cl | 0.5 | 216 | 1 | 1 | 432 | 0.5 | – | – |
| CCCCCCN(CCCOc1ccc(OCCCN(CCCCCC)C(=O)[C@@H](N)CCCCN)cc1)C(=O)[C@@H](N)CCCCN.Cl.Cl.Cl.Cl | 4 | > 1000 | 16 | 16 | > 250 | 4 | 0.5 | – |
| CCCCCCCN(CCCOc1ccccc1)C(=O)[C@@H](N)CCCCN.Cl.Cl | 16 | 773 | 128 | 64 | 24.2 | 32 | – | – |
| CCCCCCCCN(CCCOc1ccc(OCCCN(CCCCCCCC)C(=O)[C@@H](N)CCCCN)cc1)C(=O)[C@@H](N)CCCCN.Cl.Cl.Cl.Cl | 1 | 37 | 2 | 1 | 18.5 | 2 | – | – |
| CCCCCCCCN(CCCOc1cccc(-c2cccc(OCCCN(CCCCCCCC)C(=O)[C@@H](N)CCCCN)c2)c1)C(=O)[C@@H](N)CCCCN.Cl.Cl.Cl.Cl | 1 | 15 | 2 | 2 | 7.5 | 2 | – | – |
| CCCCCCCCCN(CCCOc1ccc(OCCCN(CCCCCCCCC)C(=O)[C@@H](N)CCCCN)cc1)C(=O)[C@@H](N)CCCCN.Cl.Cl.Cl.Cl | 1 | 11 | 2 | 1 | 10.5 | 2 | – | – |
| CCCCCCCN(CCOc1ccc(OCCN(CCCCCCC)C(=O)[C@H](C)N)cc1)C(=O)[C@H](C)N.Cl.Cl | 2 | 76 | 2 | 2 | 76 | 1 | – | – |
| CCCCCCCCN(CCCOc1cc2ccccc2cc1OCCCN(CCCCCCCC)C(=O)[C@@H](N)CCCCN)C(=O)[C@@H](N)CCCCN.Cl.Cl.Cl.Cl | 1 | 68 | 2 | 1 | 68 | 1 | – | – |
| CCCCCCN(CCCCOc1ccc(OCCCCN(CCCCCC)C(=O)[C@@H](N)CCCCN)cc1)C(=O)[C@@H](N)CCCCN.Cl.Cl.Cl.Cl | 4 | 868 | 4 | 4 | 217 | 4 | 0.5 | – |
| CCCCN(CCCOc1ccccc1-c1ccccc1OCCCN(CCCC)C(=O)[C@@H](N)CCCCN)C(=O)[C@@H](N)CCCCN.Cl.Cl.Cl.Cl | 8 | > 1000 | 32 | 32 | > 125 | 8 | – | – |
| CCCCCCN(CCCOc1ccc(-c2ccc(OCCCN(CCCCCC)C(=O)[C@@H](N)CCCCN)cc2)cc1)C(=O)[C@@H](N)CCCCN.Cl.Cl.Cl.Cl | 1 | 170 | 1 | 1 | 170 | 1 | – | – |
| CCCCCCN(CCCOc1ccccc1OCCCN(CCCCCC)C(=O)[C@@H](N)CCCCN)C(=O)[C@@H](N)CCCCN.Cl.Cl.Cl.Cl | 8 | > 1000 | 64 | 32 | > 125 | 8 | – | – |
| CCCCCCCN(CCCOc1ccccc1OCCCN(CCCCCCC)C(=O)[C@@H](N)CCCCN)C(=O)[C@@H](N)CCCCN.Cl.Cl.Cl.Cl | 1 | > 1000 | 16 | 8 | > 500 | 2 | 0.5 | – |
| CCCCCCCCCCN(CCOc1ccc(OCCN(CCCCCCCCCC)C(=O)[C@@H](N)CCCCN)cc1)C(=O)[C@@H](N)CCCCN.Cl.Cl.Cl.Cl | 2 | < 2.5 | 4 | 2 | < 0.625 | 4 | – | – |
| CCCCCCCN(CCCCOc1ccc(OCCCCN(CCCCCCC)C(=O)[C@@H](N)CCCCN)cc1)C(=O)[C@@H](N)CCCCN.Cl.Cl.Cl.Cl | 1 | 148 | 1 | 1 | 74 | 2 | – | – |
| CCCCCCCCN(CCCOc1ccccc1)C(=O)[C@@H](N)CCCCN.Cl.Cl | 4 | 275 | 32 | 16 | 34 | 8 | – | – |

| Compound | MIC (Enterococcus faecalis) [µg/mL] | HC50 at 1 h [1] [µg/mL] | MIC (Escherichia coli; 18 h) [µg/mL] | MIC [2] [µg/mL] | selectivity ratio [3] | MIC (Staphylococcus aureus [4]) [µg/mL] | MIC (Staphylococcus aureus [5]) [µg/mL] | MIC (Escherichia coli) [µg/mL] |
| --- | --- | --- | --- | --- | --- | --- | --- | --- |
| CCCCCCCCCCN(CCCOc1ccccc1-c1ccccc1OCCCN(CCCCCCCCCC)C(=O)[C@@H](N)CCCCN)C(=O)[C@@H](N)CCCCN.Cl.Cl.Cl.Cl | 8 | 40 | 8 | 8 | 5 | 8 | – | – |
| CCCCCCN(CCCOc1ccccc1)C(=O)[C@@H](N)CCCCN.Cl.Cl | 64 | > 1000 | 128 | 128 | > 15.6 | 64 | – | – |
| CCCCCCCCN(CCCCOc1ccc(OCCCCN(CCCCCCCC)C(=O)[C@@H](N)CCCCN)cc1)C(=O)[C@@H](N)CCCCN.Cl.Cl.Cl.Cl | 1 | 28 | 2 | 1 | 14 | 2 | – | – |
| CCCCCCCCCN(CCCOc1ccccc1)C(=O)[C@@H](N)CCCCN.Cl.Cl | 2 | 89 | 8 | 8 | 45.5 | 2 | – | – |
| C[C@@H](O)[C@H]1C(=O)N2C(C(=O)O)=C(S[C@@H]3CN[C@H](C(=O)N(C)C)C3)[C@H](C)[C@H]12 [MEROPENEM] | – | – | – | – | – | – | – | 0.062 (≈ 0.162 µM) |
| CCCCCCCCN(CCOc1ccc(OCCN(CCCCCCCC)C(=O)[C@@H](N)CCCCN)cc1)C(=O)[C@@H](N)CCCCN.Cl.Cl.Cl.Cl | 0.5 | 93 | 2 | 1 | 93 | 1 | – | – |
| CCCCCCCCCN(CCCCOc1ccc(OCCCCN(CCCCCCCCC)C(=O)[C@@H](N)CCCCN)cc1)C(=O)[C@@H](N)CCCCN.Cl.Cl.Cl.Cl | 1 | 12 | 2 | 1 | 6 | 2 | – | – |
| CCCCCCN(CCOc1ccc(OCCN(CCCCCC)C(=O)[C@@H](N)CCCCN)cc1)C(=O)[C@@H](N)CCCCN.Cl.Cl.Cl.Cl | 8 | > 1000 | 64 | 64 | > 250 | 4 | – | – |
| CCCCCCCN(CCOc1ccc(OCCN(CCCCCCC)C(=O)[C@@H](N)Cc2ccccc2)cc1)C(=O)[C@@H](N)Cc1ccccc1.Cl.Cl | 1 | 145 | > 128 | > 128 | 72.5 | 2 | – | – |
| CCCCCCCCN(CCCOc1ccc2ccccc2c1-c1c(OCCCN(CCCCCCCC)C(=O)[C@@H](N)CCCCN)ccc2ccccc12)C(=O)[C@@H](N)CCCCN.Cl.Cl.Cl.Cl (stereo in doubt; 8o) | 2 | 100 | 8 | 4 | 25 | 4 | – | – |
| CCCCCCCCN(CCCOc1ccccc1-c1ccccc1OCCCN(CCCCCCCC)C(=O)[C@@H](N)CCCCN)C(=O)[C@@H](N)CCCCN.Cl.Cl.Cl.Cl | 1 | 20 | 2 | 2 | 5 | 4 | – | – |
| CCCCCCCCN(CCCOc1ccc2c(OCCCN(CCCCCCCC)C(=O)[C@@H](N)CCCCN)cccc2c1)C(=O)[C@@H](N)CCCN.Cl.Cl.Cl.Cl | 1 | 14 | 1 | 1 | 14 | 1 | – | – |
| CCCCCCCN(CCOc1ccc(OCCN(CCCCCCC)C(=O)[C@@H](N)CC(C)C)cc1)C(=O)[C@@H](N)CC(C)C.Cl.Cl | 0.5 | 36 | 2 | 1 | > 144 | < 0.25 | – | – |
| CCCCCCN(CCCOc1ccc2ccccc2c1-c1c(OCCCN(CCCCCC)C(=O)[C@@H](N)CCCCN)ccc2ccccc12)C(=O)[C@@H](N)CCCCN.Cl.Cl.Cl.Cl (stereo in doubt; 8m) | 1 | 61 | 2 | 1 | 61 | 1 | – | – |
| CCCCCCCCN(CCCOc1ccc(-c2ccc(OCCCN(CCCCCCCC)C(=O)[C@@H](N)CCCCN)cc2)cc1)C(=O)[C@@H](N)CCCCN.Cl.Cl.Cl.Cl | 2 | < 0.25 | 4 | 4 | < 0.125 | 2 | – | – |
| CCCCCCCCCN(CCOc1ccc(OCCN(CCCCCCCCC)C(=O)[C@@H](N)CCCCN)cc1)C(=O)[C@@H](N)CCCCN.Cl.Cl.Cl.Cl | 1 | 21 | 2 | 2 | 10.5 | 2 | – | – |
